{"source": "patent US10864182B2", "about": "“Treatment of fragile X syndrome” (Healx Limited, priority 2018, dated 2020)", "format_in_all_cases": "in vivo", "key": {"[1]": {"tested_on": "Fmr1 KO2 mice", "experiment": "Open field (hyperactivity)", "conditions": "5 mg/kg by subcutaneous osmotic minipump, 15 days chronic treatment, 3 min observation", "excerpt": "(§1) Fmr1 knockout 2 (Fmr1 KO2) mice were generated by deletion of the promoter and first exon of Fmr1. The Fmr1 KO2 it is both, protein and mRNA null. In this study we used Fmr1 KO2 and wild-type (WT) littermates generated on a C57BL/6J background and repeatedly backcrossed onto a C57BL/6J background for more than eight generations.\nThere were four treatment groups per compound in the study with 10 male mice used per treatment group (all at 8 weeks of age): Group 1: Fmr1 KO2 mice treated with vehicle (Fmr1 KO2-V), Group 2: wild-type littermate mice treated with vehicle (WT-V), Group 3: Fmr1 KO2 mice treated with sulindac (Fmr1 KO-Sulindac) and Group 4: wild-type littermate mice treated with sulindac (WT-Sulindac) […]\n(§2) For experiments, all mice were tested once in the same apparatus. […] We assessed weight loss, fur loss, walking, eyes open, eye discharges and general behavior.\nThe open-field apparatus was used to test hyperactivity. […] The number of squares entered by the whole body (locomotor activity) was counted. The movement of the mouse around the field was recorded with a video tracking device for 3 min (version NT4.0, Viewpoint).\n(§3) Data were analyzed by two-way analysis of variance (ANOVA) followed by post-test comparisons where appropriate using Tukey's Multiple Comparison Test. […]"}, "[2]": {"tested_on": "Fmr1 KO2 mice", "experiment": "Nesting", "conditions": "5 mg/kg by subcutaneous osmotic minipump, 15 days, listed as sulindac", "excerpt": "as §1\n(§4) There were four treatment groups per compound in the study with 10 male mice used per treatment group (all at 8 weeks of age): Group 1: Fmr1 KO2 mice treated with vehicle (Fmr1 KO2-V), Group 2: wild-type littermate mice treated with vehicle (WT-V), Group 3: Fmr1 KO2 mice treated with sulindac (Fmr1 KO-Sulindac) and Group 4: wild-type littermate mice treated with sulindac (WT-Sulindac)\n(§5) Sulindac: 5 mg/kg by osmotic minipumps (ALZET Osmotic Pumps Cupertino, Calif., USA) implanted subcutaneously for 15 days delivery.\nas §2\nThe test was performed in individual cages. […] Mice were placed individually into the nesting cages 1 hr. before the dark phase, and the results were assessed the next morning. Nest building was scored on a 5 point scale. […]\nas §3"}, "[3]": {"tested_on": "Fmr1 KO2 mice", "experiment": "Contextual fear conditioning", "conditions": "5 mg/kg by subcutaneous osmotic minipump, 15 days, KO not different from WT", "excerpt": "as §1, §4, §5\nFor experiments, all mice were tested once in the same apparatus. Prior to testing, mice were placed in the apparatus for some minutes before the experiment. The apparatus was cleaned with moist and dry tissues before testing each mouse. […] We assessed weight loss, fur loss, walking, eyes open, eye discharges and general behavior. […]\nas §3"}, "[4]": {"tested_on": "Fmr1 KO2 mice", "experiment": "Three-chambered sociability task (social interaction)", "conditions": "5 mg/kg by subcutaneous osmotic minipump, 15 days", "excerpt": "as §1, §4, §5, §2\nIn the three-chambered sociability task, a subject mouse was evaluated for its exploration of a novel social stimulus (novel mouse). […] The time spent exploring the novel mice was scored as exploration ratio.\nas §3"}}, "note": "Entries after “also recorded” stand apart in the source; their conditions may differ."}
{"smiles": "CC1=C(CC(=O)O)c2cc(F)ccc2/C1=C\\c1ccc([S+](C)[O-])cc1", "note": "(stereo not drawn) [Sulindac, (Z)-5-fluoro-2-methyl-1-[[p-(methylsulfinyl)phenyl]methylene]-1H-indene-3-acetic acid]", "values": [{"measurement": "hyperactivity in open field (locomotor activity, number of squares entered)", "setting": "[1]", "value": "fully rescuing; also recorded: normalizes hyperactivity"}, {"measurement": "nesting behavior (nest building score, 5 point scale)", "setting": "[2]", "value": "fully rescuing; also recorded: normalization in nesting behavior"}, {"measurement": "freezing in contextual memory test (learning and memory)", "setting": "[3]; p=0.3968", "value": "ameliorates the Fmr1 KO deficit in learning and memory"}, {"measurement": "freezing in contextual memory test (learning and memory)", "setting": "[3]; p=0.3968, listed as sulindac", "value": "partially rescuing"}, {"measurement": "sociability (exploration index of the novel mouse)", "setting": "[4]", "value": "partially improved such impairment"}, {"measurement": "sociability (exploration index of the novel mouse)", "setting": "[4]; listed as sulindac", "value": "partially rescuing"}]}
